Measurements from ChEMBL document CHEMBL1133977, “Robinlin: a novel bioactive homo-monoterpene from Robinia pseudoacacia L. (Fabaceae)” (Bioorg Med Chem Lett, 2001).
In brackets after ≈: the same amount, converted by molar mass.

Columns and labels:
[1] = tested on: A498; experiment: In vitro cytotoxic activity against A-498 (human kidney carcinoma) cell line; type: functional; settings: read-out: ED50 (the source's name)
[2] = tested on: MIA PaCa-2; experiment: In vitro cytotoxic activity against PACA-2 (human pancreatic carcinoma) cell line; type: functional; settings: read-out: ED50 (the source's name)
[3] = tested on: A549; experiment: In vitro cytotoxic activity against A-549 (human lung carcinoma) cell line; type: functional; settings: read-out: ED50 (the source's name)
[4] = tested on: HT-29; experiment: In vitro cytotoxic activity against HT-29 (human colon adenocarcinoma) cell line; type: functional; settings: read-out: ED50 (the source's name)
[5] = Activity in brine shrimp lethality test (BST); type: organism-based; settings: artemia, in vivo
[6] = tested on: PC-3; experiment: In vitro cytotoxic activity against PC-3 (human prostate adenocarcinoma) cell line; type: functional; settings: read-out: ED50 (the source's name)
[7] = tested on: MCF7; experiment: In vitro cytotoxic activity against MCF-7 (human breast carcinoma) cell line; type: functional; settings: read-out: ED50 (the source's name)

Structure (SMILES)	EC50 [1] [ng/mL]	EC50 [2] [ng/mL]	EC50 [3] [ng/mL]	EC50 [4] [ng/mL]	LC50 [5] [ng/mL]	EC50 [6] [ng/mL]	EC50 [7] [ng/mL]
CC1=C(CCO)C(C)(C)C[C@@H](O)C1=O	> 100000	> 100000	47000 (≈ 237 µM)	52000 (≈ 262 µM)	4900 (≈ 24.7 µM)	> 100000	46000 (≈ 232 µM)
COc1cccc2c1C(=O)c1c(O)c3c(c(O)c1C2=O)C[C@@](O)(C(=O)CO)C[C@@H]3O[C@H]1C[C@H](N)[C@H](O)[C@H](C)O1 [DOXORUBICIN]	0.46 (≈ 0.000846 µM)	0.18 (≈ 0.000331 µM)	0.21 (≈ 0.000386 µM)	1.3 (≈ 0.00239 µM)	–	0.24 (≈ 0.000442 µM)	5.8 (≈ 0.0107 µM)
